Where two headings read alike, the source gives them in different places.
Target: T1, NL20 human bronchial epithelial cells expressing human Z-AAT (Homo sapiens, UniProt P01009, E366K)
T1 construct: expressed in transfected cells; host or cells: NL20 human bronchial epithelial cells (NL20-SI line, doxycycline added)
Experiment: AAT Function Assay (MSD Assay NL20-SI Cell Line)
Format: cell-based
Conditions: functionally active AAT (AAT-hNE complex) in supernatant of NL20 cells expressing human Z-AAT
Outline: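 NL20 cells expressing Z-AAT, seeded 16,000 cells/well, received compound with doxycycline (0.1 μM final) and were incubated overnight at 37° C. Supernatants, diluted 45-fold in total, reacted with excess human neutrophil elastase; AAT-elastase complex captured on anti-AAT plates, detected with Sulfo-tagged anti-elastase by MSD electrochemiluminescence, and quantified against M-AAT standards (0.156-320 ng/mL).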

T1 sequence (P01009 25-418 E366K): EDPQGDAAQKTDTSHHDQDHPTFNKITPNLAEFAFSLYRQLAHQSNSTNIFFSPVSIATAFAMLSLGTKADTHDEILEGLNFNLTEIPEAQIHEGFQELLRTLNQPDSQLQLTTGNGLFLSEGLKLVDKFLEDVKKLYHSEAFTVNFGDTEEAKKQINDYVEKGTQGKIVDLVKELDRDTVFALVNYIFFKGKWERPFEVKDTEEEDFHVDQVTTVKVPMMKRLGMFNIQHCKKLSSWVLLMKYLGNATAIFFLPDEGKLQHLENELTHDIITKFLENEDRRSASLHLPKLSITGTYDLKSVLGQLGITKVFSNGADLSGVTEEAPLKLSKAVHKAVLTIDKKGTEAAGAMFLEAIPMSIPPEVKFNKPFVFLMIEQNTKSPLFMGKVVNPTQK

Structure (SMILES)	EC50 (read-out: NL20 Func. (EC50))	EC50 (NL20 Func. (EC50))
Cc1cc(-n2c(C(C)C)c([C@H]3C[C@@H](CC(=O)O)C3)c3cc4[nH]ncc4cc32)ccc1F [Compound 23]	< 1.16 µM	–
CC(C)c1c(C#N)c2cc3[nH]ncc3cc2n1-c1ccc(F)cc1 [Compound 29, 5-(4-fluorophenyl)-6-isopropyl-1H-pyrrolo[2,3-f]indazole-7-carbonitrile]	< 1.16 µM	–
CC(C)c1c(S(C)(=O)=O)c2cc3[nH]ncc3cc2n1-c1ccc(F)cc1 [Compound 30, 5-(4-fluorophenyl)-6-isopropyl-7-methylsulfonyl-1H-pyrrolo[2,3-f]indazole]	> 3 µM	–
CC(C)c1c(/C=C/C(=O)O)c2cc3[nH]ncc3cc2n1-c1ccc(F)cc1 [Compound 31, (E)-3-[5-(4-fluorophenyl)-6-isopropyl-1H-pyrrolo[2,3-f]indazol-7-yl]prop-2-enoic Acid]	1.16 to 3 µM	–
CC(C)c1c(CCC(=O)O)c2cc3[nH]ncc3cc2n1-c1ccc(F)cc1 [Compound 32, 3-[5-(4-fluorophenyl)-6-isopropyl-1H-pyrrolo[2,3-f]indazol-7-yl]propanoic Acid]	1.16 to 3 µM	–
CC(C)c1c(CC2(C(=O)O)CC2)c2cc3[nH]ncc3cc2n1-c1ccc(F)cc1 [Compound 33, 1-[[5-(4-fluorophenyl)-6-isopropyl-1H-pyrrolo[2,3-f]indazol-7-yl]methyl]cyclopropanecarboxylic Acid]	< 1.16 µM	–
CC(C)c1c(CCC(=O)O)c2cc3[nH]ncc3cc2n1-c1cccc(C(F)F)c1 [Compound 37, 3-[5-[3-(difluoromethyl)phenyl]-6-isopropyl-1H-pyrrolo[2,3-f]indazol-7-yl]propanoic Acid]	> 3 µM	–
CC(C)c1c(CCC(=O)O)c2cc3[nH]ncc3cc2n1-c1ccc(F)c(F)c1 [Compound 38, 3-[5-(3,4-difluorophenyl)-6-isopropyl-1H-pyrrolo[2,3-f]indazol-7-yl]propanoic Acid]	1.16 to 3 µM	–
CC(C)c1c(CC2(C(=O)O)CC2)c2cc3[nH]ncc3cc2n1-c1cccc(C(F)(F)F)c1 [Compound 39, 1-[[6-isopropyl-5-[3-(trifluoromethyl)phenyl]-1H-pyrrolo[2,3-f]indazol-7-yl]methyl]cyclopropanecarboxylic Acid]	1.16 to 3 µM	–
CC(C)c1c(CCC(=O)O)c2cc3[nH]ncc3cc2n1-c1cccc(C(F)(F)F)c1 [Compound 40, 3-[6-isopropyl-5-[3-(trifluoromethyl)phenyl]-1H-pyrrolo[2,3-f]indazol-7-yl]propanoic Acid]	> 3 µM	–
CC(C)c1c(CCC(=O)O)c2cc3[nH]ncc3cc2n1-c1ccccc1 [Compound 41, 3-(6-isopropyl-5-phenyl-1H-pyrrolo[2,3-f]indazol-7-yl)propanoic Acid]	1.16 to 3 µM	–
CC(C)c1c(C#N)c2cc3[nH]ncc3cc2n1-c1ccccc1 [Compound 42, 6-isopropyl-5-phenyl-1H-pyrrolo[2,3-f]indazole-7-carbonitrile]	–	1.16 to 3 µM
Cc1cc(-n2c(C(C)C)cc3cc4[nH]ncc4cc32)ccn1 [Compound 43, 6-isopropyl-5-(2-methyl-4-pyridyl)-1H-pyrrolo[2,3-f]indazole]	> 3 µM	–
Cc1cccc(-n2c(C(C)C)c(C#N)c3cc4[nH]ncc4cc32)c1 [Compound 44, 6-isopropyl-5-(m-tolyl)-1H-pyrrolo[2,3-f]indazole-7-carbonitrile]	–	> 3 µM
CC(C)c1c(C#N)c2cc3[nH]ncc3cc2n1-c1cccc(Cl)c1 [Compound 45, 5-(3-chlorophenyl)-6-isopropyl-1H-pyrrolo[2,3-f]indazole-7-carbonitrile]	> 3 µM	–
Cc1cc(-n2c(C(C)C)c(I)c3cc4[nH]nc(F)c4cc32)ccc1F [Compound 46, 3-fluoro-5-(4-fluoro-3-methyl-phenyl)-7-iodo-6-isopropyl-1H-pyrrolo[2,3-f]indazole]	> 3 µM	–
Cc1cc(-n2c(C(C)C)c(S(C)(=O)=O)c3cc4[nH]nc(F)c4cc32)ccc1F [Compound 47, 3-fluoro-5-(4-fluoro-3-methyl-phenyl)-6-isopropyl-7-methylsulfonyl-1H-pyrrolo[2,3-f]indazole]	> 3 µM	–
Cc1cc(-n2c(C(C)C)cc3c(I)c4[nH]ncc4cc32)ccc1F [Compound 48, 5-(4-fluoro-3-methyl-phenyl)-8-iodo-6-isopropyl-1H-pyrrolo[2,3-f]indazole]	> 3 µM	–
Cc1cc(-n2c(C(C)C)cc3c(C)c4[nH]ncc4cc32)ccc1F [Compound 49, 5-(4-fluoro-3-methyl-phenyl)-6-isopropyl-8-methyl-1H-pyrrolo[2,3-f]indazole]	> 3 µM	–
Cc1cc(-n2c(C(C)C)cc3c(F)c4[nH]ncc4cc32)ccc1F [Compound 50, 8-fluoro-5-(4-fluoro-3-methyl-phenyl)-6-isopropyl-1H-pyrrolo[2,3-f]indazole]	> 3 µM	–
Cc1cc(-n2c(C(C)C)c(CCC(=O)O)c3c(C)c4[nH]ncc4cc32)ccc1F [Compound 51, 3-[5-(4-fluoro-3-methyl-phenyl)-6-isopropyl-8-methyl-1H-pyrrolo[2,3-f]indazol-7-yl]propanoic acid]	1.16 to 3 µM	–
Cc1cc(-n2c(C(C)C)c(CCC(=O)O)c3c(F)c4[nH]ncc4cc32)ccc1F [Compound 52, 3-[8-fluoro-5-(4-fluoro-3-methyl-phenyl)-6-isopropyl-1H-pyrrolo[2,3-f]indazol-7-yl]propanoic Acid]	< 1.16 µM	–
CC(C)c1c(CCC(=O)O)c2c(F)c3[nH]ncc3cc2n1-c1ccc(F)cc1 [Compound 53, 3-[8-fluoro-5-(4-fluorophenyl)-6-isopropyl-1H-pyrrolo[2,3-f]indazol-7-yl]propanoic Acid]	< 1.16 µM	–

Structure (SMILES)	EC50 (read-out: NL20 Func. (EC50))	EC50 (NL20 Func. (EC50))
Cc1cc(-n2c(C(C)C)c(CCC(=O)O)c3cc4[nH]nc(C)c4cc32)ccc1F [Compound 54, 3-[5-(4-fluoro-3-methyl-phenyl)-6-isopropyl-3-methyl-1H-pyrrolo[2,3-f]indazol-7-yl]propanoic Acid]	> 3 µM	–
Fc1ccc(-n2c(C3CCOCC3)cc3cc4[nH]ncc4cc32)cc1 [Compound 60, 5-(4-fluorophenyl)-6-tetrahydropyran-4-yl-1H-pyrrolo[2,3-f]indazole]	> 3 µM	–
N#Cc1c(C2CCOCC2)n(-c2ccc(F)cc2)c2cc3cn[nH]c3cc12 [Compound 61, 5-(4-fluorophenyl)-6-tetrahydropyran-4-yl-1H-pyrrolo[2,3-f]indazole-7-carbonitrile]	> 3 µM	–
CS(=O)(=O)c1c(C2CCOCC2)n(-c2ccc(F)cc2)c2cc3cn[nH]c3cc12 [Compound 62, 5-(4-fluorophenyl)-7-methylsulfonyl-6-tetrahydropyran-4-yl-1H-pyrrolo[2,3-f]indazole]	> 3 µM	–
Fc1ccc(-n2c(C3CCOCC3)c(Cl)c3cc4[nH]ncc4cc32)cc1 [Compound 63, 7-chloro-5-(4-fluorophenyl)-6-tetrahydropyran-4-yl-1H-pyrrolo[2,3-f]indazole]	1.16 to 3 µM	–
O=C(O)CCc1c(C2CCOCC2)n(-c2ccc(F)c(F)c2)c2cc3cn[nH]c3cc12 [Compound 64, 3-[5-(3,4-difluorophenyl)-6-tetrahydropyran-4-yl-1H-pyrrolo[2,3-f]indazol-7-yl]propanoic Acid]	> 3 µM	–
O=C(O)[C@H]1C[C@@H](c2c(C3CCOCC3)n(-c3ccc(F)c(F)c3)c3cc4cn[nH]c4cc32)C1 [Compound 65]	> 3 µM	–
O=C(O)[C@H]1C[C@H](c2c(C3CCOCC3)n(-c3ccc(F)c(F)c3)c3cc4cn[nH]c4cc32)C1 [Compound 66]	1.16 to 3 µM	–
O=C(O)[C@H]1CC[C@H](c2c(C3CCOCC3)n(-c3ccc(F)c(F)c3)c3cc4cn[nH]c4cc32)CC1 [Compound 75, (1r,4r)-4-(5-(3,4-difluorophenyl)-6-(tetrahydro-2H-pyran-4-yl)-1,5-dihydropyrrolo[2,3-f]indazol-7-yl)cyclohexane-1-carboxylic Acid]	< 1.16 µM	–
O=C(O)CCc1c(C2CCOCC2)n(-c2ccc(F)c(Cl)c2)c2cc3cn[nH]c3cc12 [Compound 82]	> 3 µM	–
O=C(O)[C@H]1CC[C@H](Cc2c(C3CCOCC3)n(-c3ccc(F)c(Cl)c3)c3cc4cn[nH]c4cc23)CC1 [Compound 84]	1.16 to 3 µM	–
Cc1cc(-n2c(C3CCOCC3)c(CCC(=O)O)c3cc4[nH]ncc4cc32)ccc1F [Compound 86]	> 3 µM	–
Cc1cc(-n2c(C3CCOCC3)c(CC3(C(=O)O)CC3)c3cc4[nH]ncc4cc32)ccc1F [Compound 87]	1.16 to 3 µM	–
Cc1cc(-n2c(C3CCOCC3)c(CCCC(=O)O)c3cc4[nH]ncc4cc32)ccc1F [Compound 88]	1.16 to 3 µM	–
Cc1cc(-n2c(C3CCOCC3)c([C@H]3C[C@@H](C(=O)O)C3)c3cc4[nH]ncc4cc32)ccc1F [Compound 99]	> 3 µM	–
Cc1cc(-n2c(C3CCOCC3)c([C@H]3C[C@H](C(=O)O)C3)c3cc4[nH]ncc4cc32)ccc1F [Compound 100]	1.16 to 3 µM	–
Cc1cc(-n2c(C3CCOCC3)c(CC34CC(C(=O)O)(C3)C4)c3cc4[nH]ncc4cc32)ccc1F [Compound 103]	> 3 µM	–
O=C(O)CCc1c(C2CCOCC2)n(-c2ccc(F)cc2)c2cc3cn[nH]c3cc12 [Compound 107]	> 3 µM	–
O=C(O)C1(Cc2c(C3CCOCC3)n(-c3ccc(F)cc3)c3cc4cn[nH]c4cc23)CC1 [Compound 111]	1.16 to 3 µM	–
O=C(O)[C@H]1C[C@@H](c2c(C3CCOCC3)n(-c3ccc(F)cc3)c3cc4cn[nH]c4cc32)C1 [Compound 112]	> 3 µM	–
O=C(O)[C@H]1C[C@H](c2c(C3CCOCC3)n(-c3ccc(F)cc3)c3cc4cn[nH]c4cc32)C1 [Compound 113]	1.16 to 3 µM	–
O=C(O)[C@H]1C[C@@H](Cc2c(C3CCOCC3)n(-c3ccc(F)cc3)c3cc4cn[nH]c4cc23)C1 [Compound 117]	1.16 to 3 µM	–
O=C(O)[C@H]1C[C@H](Cc2c(C3CCOCC3)n(-c3ccc(F)cc3)c3cc4cn[nH]c4cc23)C1 [Compound 118]	> 3 µM	–

Source: US11623924B2, “Modulators of alpha-1 antitrypsin” (Vertex Pharmaceuticals Incorporated, priority 2018, dated 2023)
